Assays:
in vitro = settings: human, plasma
Protocol: (§1) We evaluated the metabolic stability of Kylo-0603 in the plasma of CD-1 mice, Sprague–Dawley (SD) rats, beagle dogs, cynomolgus monkeys, and humans. The plasma from the five species was mixed with Kylo-0603 (2 μM) and incubated at 37°C in a thermostatic water tank. The plasma concentrations of Kylo-0603 were monitored via LC-MS/MS at 0, 10, 30, 60, and 120 min.

[1] = Metabolic stability in plasma (CD-1 mice)
Protocol: as §1

[2] = tested on: MASH mouse model (F2 ~ 3); assay: MASH mouse model (F2~3) induced with HFD and CCl4; format: in vivo, C57BL/6J mice; parameters: Steatosis score / Lobular inflammation score / Ballooning score / NAFLD activity score / Fibrosis Score: scale not given here
Protocol: A total of 80 5-week-old C57BL/6J male mice were randomly assigned to two groups based on their body weight: a control group (n = 10) and a high-fat diet group (HFD, D12492, n = 70). During the eight-week feeding period, the mice in the two groups were provided with the corresponding diets, including shavings bedding, and their weights were recorded once a week. The change of the weight of each group of mice at a given time were recorded. […] The control diet group was provided with a control diet supplemented with the solvent vehicle, while the HFD control group was given a high-fat diet with the same supplement. The remaining […] groups were provided a high-fat diet containing the solvent and administered a range of doses of Kylo-0603, namely, 0.1 mg/kg, 0.3 mg/kg, 1 mg/kg, 3 mg/kg, and 10 mg/kg. The HFD control group was administered intraperitoneal injections of 0.2 ml/kg CCl4 twice a week for 8 weeks, during which time the mice were fed the same diets as before. The mice were weighed weekly, and the dosage for each week was determined based on their body weight at the commencement of that week. After a period of fasting of between 5 and 6 hours on the day following the final administration of the drug, the mice in each group were euthanized, whole blood was collected from either the orbits or the heart, and the serum was separated and stored at −80°C. The heart and liver tissues of the mice in each group were weighed and photographed. The heart tissues were then quickly frozen in liquid nitrogen and stored in a refrigerator at −80°C, and the middle lobe of the liver was divided into four parts. Two of these samples were quickly frozen in liquid nitrogen and stored at −80°C (for RNA sequencing). The remaining two portions were fixed in a 4% Paraformaldehyde solution and subsequently dehydrated for paraffin embedding and OCT embedding. […] For the quantification of hepatic lipid content, liver tissues were meticulously homogenized in isopropanol (1:9 tissue to isopropanol by mass/volume) on ice. The homogenate was then incubated overnight at 4°C and subsequently centrifuged to […]. The resulting solution was analyzed for TG and Chol using a Hitachi 7020 automated hematochemistry system.
The samples were then washed with pure water.

[3] = Metabolic stability in plasma (beagle dogs); settings: dog
Protocol: as §1

[4] = Metabolic stability in plasma (SD rats); settings: SD rat plasma
Protocol: as §1

[5] = tested on: MASH mouse models (F2 ~ 3); assay: SHG/TPEF microscopy of liver fibrosis and steatosis in MASH mouse models; format: in vivo, C57BL/6J mice; settings: for SHG fibrosis percentage / percentage of steatosis: 8 weeks; for SHG fibrosis percentage: control 4.36%; for percentage of steatosis: control 21.66%
Protocol: Scanning was conducted on a Genesis® machine, a stain-free TPE/SHG microscopic imaging device manufactured in-house by HistoIndex®, Singapore. The region of interest (ROI) is systematically partitioned into uniformly sized, termed “blocks,” each measuring of 200 μm × 200 μm. These blocks were sequentially imaged individually and in sequence in raster scan mode utilizing a 20x objective lens. Each block has a resolution of 512 × 512 pixels, or 0.4 μm per pixel. Software developed by HistoIndex and Chipmap for image analysis identifies the different lobular regions, the central vein, the confluent region, and the perisinus region. Fibrosis and steatosis in these regions were subsequently measured and quantified in the SHG and TPE images.
As a fundamental component of clinical prognosis in MASH, a precise evaluation of hepatic fibrosis is very crucial. Artificial intelligence-assisted second harmonic generation/two-photon excitation fluorescence (SHG/TPEF) microscopy technique has been introduced because the existing scoring systems are insufficient for capturing the process of hepatic fibrosis regression. This offers a consistent and very precise way to evaluate the pathological characteristics of MASH, especially the serial measurement of collagen fibers and hepatic fibrosis. In this study, we employed second harmonic generation/two-photon excited fluorescence (SHG/TPEF) microscopy integrated with digital image analysis to evaluate liver tissue sections across a larger tissue area from MASH mouse models (F2–F3). This approach enabled systematic analysis of the effects of Kylo-0603 on arresting the progression of hepatic steatosis and fibrosis of liver tissue.
Through quantitative analysis of SHG/TPEF imaging datasets, we conducted a detailed assessment of the specific impacts of varying Kylo-0603 dosages (0.1 mg/kg, 0.3 mg/kg, 1 mg/kg, 3 mg/kg, and 10 mg/kg) on fibrogenesis and steatosis in F2–F3 MASH mouse models. The key findings are systematically summarized as follows: […]

[6] = 3 mg/kg, 8 weeks, vs HFD + CCl4 + Vehicle
[7] = 10 mg/kg, 8 weeks, vs HFD + CCl4 + Vehicle
[8] = abstract: MASH mouse model, maximum effect

CC(=O)N[C@H]1[C@H](OCCCCCCNC(=O)CCOCC(COCCC(=O)NCCCCCCO[C@@H]2O[C@H](CO)[C@H](O)[C@H](O)[C@H]2NC(C)=O)(COCCC(=O)NCCCCCCO[C@@H]2O[C@H](CO)[C@H](O)[C@H](O)[C@H]2NC(C)=O)NC(=O)CCCCCNC(=O)COc2cc(C)c(Cc3ccc(O)c(C(C)C)c3)c(C)c2)O[C@H](CO)[C@H](O)[C@@H]1O [Kylo-0603]
half-life at 2 μM (in vitro): > 6.21 h | plasma stability [1]: stable | decrease of fibrosis score ([2]; 3 mg/kg and 10 mg/kg, 8 weeks, vs HFD + CCl4 + Vehicle): 0.6 points | ALT decrease ([2]; 3 mg/kg, 8 weeks, serum): 73.8% | AST decrease ([2]; 3 mg/kg, 8 weeks, serum): 76.3% | decrease in ballooning degeneration score [2, 6]: 0.7 points | reduction in hepatic steatosis score [2, 6]: exceeding 1.0 points | reduction in inflammation score [2, 6]: exceeding 1.0 points | reduction of NAS (NAFLD Activity Score) [2, 6]: 3.5 points | decrease in ballooning degeneration score [2, 7]: 0.8 points | reduction in hepatic steatosis score [2, 7]: exceeding 1.0 points | reduction in inflammation score [2, 7]: exceeding 1.0 points | reduction of NAS (NAFLD Activity Score) [2, 7]: 3.7 points | TSH levels ([2]; 8 weeks, blood): decreasing trends | levels of thyroid hormones T3, fT3, T4 and fT4 ([2]; 8 weeks, blood): increasing trends | Ballooning score ([2]; HFD + CCl4, 0.1 mg/kg, 8 weeks): 1.4 ± 0.5 | Fibrosis Score ([2]; HFD + CCl4, 0.1 mg/kg, 8 weeks): 2.8 ± 0.4 | Lobular inflammation score ([2]; HFD + CCl4, 0.1 mg/kg, 8 weeks): 2.4 ± 0.5 | NAFLD activity score ([2]; HFD + CCl4, 0.1 mg/kg, 8 weeks): 4.7 ± 0.9 | Steatosis score ([2]; HFD + CCl4, 0.1 mg/kg, 8 weeks): 0.8 ± 1.0 | Ballooning score ([2]; HFD + CCl4, 0.3 mg/kg, 8 weeks): 1.4 ± 0.5 | Fibrosis Score ([2]; HFD + CCl4, 0.3 mg/kg, 8 weeks): 2.3 ± 0.5 | Lobular inflammation score ([2]; HFD + CCl4, 0.3 mg/kg, 8 weeks): 2.2 ± 0.4 | NAFLD activity score ([2]; HFD + CCl4, 0.3 mg/kg, 8 weeks): 4.0 ± 0.9 | Steatosis score ([2]; HFD + CCl4, 0.3 mg/kg, 8 weeks): 0.3 ± 0.5 | Ballooning score ([2]; HFD + CCl4, 1 mg/kg, 8 weeks): 2.0 ± 0.0 | Fibrosis Score ([2]; HFD + CCl4, 1 mg/kg, 8 weeks): 2.3 ± 0.5 | Lobular inflammation score ([2]; HFD + CCl4, 1 mg/kg, 8 weeks): 2.2 ± 0.4 | NAFLD activity score ([2]; HFD + CCl4, 1 mg/kg, 8 weeks): 4.3 ± 0.5 | Steatosis score ([2]; HFD + CCl4, 1 mg/kg, 8 weeks): 0.1 ± 0.3 | Ballooning score ([2]; HFD + CCl4, 3 mg/kg, 8 weeks): 1.1 ± 0.3 | Fibrosis Score ([2]; HFD + CCl4, 3 mg/kg, 8 weeks): 2.0 ± 0.0 | Lobular inflammation score ([2]; HFD + CCl4, 3 mg/kg, 8 weeks): 1.4 ± 0.5 | NAFLD activity score ([2]; HFD + CCl4, 3 mg/kg, 8 weeks): 2.8 ± 1.0 | Steatosis score ([2]; HFD + CCl4, 3 mg/kg, 8 weeks): 0.2 ± 0.4 | Ballooning score ([2]; HFD + CCl4, 10 mg/kg, 8 weeks): 1.0 ± 0.7 | Fibrosis Score ([2]; HFD + CCl4, 10 mg/kg, 8 weeks): 2.0 ± 0.0 | Lobular inflammation score ([2]; HFD + CCl4, 10 mg/kg, 8 weeks): 1.1 ± 0.5 | NAFLD activity score ([2]; HFD + CCl4, 10 mg/kg, 8 weeks): 2.6 ± 1.0 | Steatosis score ([2]; HFD + CCl4, 10 mg/kg, 8 weeks): 0.4 ± 1.0 | decrease of fibrosis score ([2]; abstract): 0.6 points | decrease of ballooning score ([2]; abstract, maximum effect): 0.8 points | decrease of inflammation score ([2]; abstract, maximum effect): 1.8 points | reduction of NAS ([2]; abstract, maximum effect): up to 3.7 points | lowering of LDL-C levels [2, 8]: up to 88.2% | lowering of serum cholesterol levels [2, 8]: ≤ 69.2% | plasma stability [3]: unstable | plasma stability [4]: stable | SHG fibrosis percentage ([5]; 0.1 mg/kg): 2.92% | percentage of steatosis ([5]; 0.1 mg/kg): 5.07% | SHG fibrosis percentage ([5]; 0.3 mg/kg): 2.12% | percentage of steatosis ([5]; 0.3 mg/kg): 4.39% | SHG fibrosis percentage ([5]; 1 mg/kg): 2.16% | percentage of steatosis ([5]; 1 mg/kg): 4.19% | SHG fibrosis percentage ([5]; 3 mg/kg): 2.03% | percentage of steatosis ([5]; 3 mg/kg): 2.22% | reduction of steatosis vs control group ([5]; 10 mg/kg): 90% | SHG fibrosis percentage ([5]; 10 mg/kg): 1.86%

Source: publication PMC12435690, “KYLO-0603, a novel liver-targeting, thyroid hormone receptor-β agonist for the inhibition of MASH progression” (PLOS One, 2025)
